Reference: patent publication US20250346573A1, “AZAQUINOLINONE DERIVATIVE, PREPARATION METHOD THEREFOR AND USE THEREOF” (CHENGDU EASTON BIOPHARMACEUTICALS CO., LTD., priority 2022, published 2025)

Legend:
[1] = test system: BRCA1-mutated MDA-MB-436 cells; assay: Proliferation inhibitory test of BRCA1-mutated MDA-MB-436 cells (CCK-8); type: cell-based; settings: Homo sapiens, 120 h, 5 days, read-out: IC50 (nM), inhibitory activity against BRCA1-mutated MDA-MB-436 cells
Experimental: (§1) CCK-8 was used to measure the content of mitochondrial dehydrogenase in cells at different drug concentrations, and the luminescence intensity was used to reflect the cell activity. The IC50 values of different compounds on BRCA1-mutated MDA-MB-436 cells were calculated using the survival rate, and the proliferation inhibitory effect of the compounds of the present disclosure on BRCA1-mutated MDA-MB-436 cells was studied to evaluate the anti-tumor efficacy of the test compounds at the cellular level.
(§2) On Day −1, the cells were inoculated into the 96-well cell culture plate at a fixed cell density and then placed in the 5% CO2 cell incubator for culture overnight at 37° C.
(§3) On Day 0, the compound to be tested was prepared into a 10 mM stock solution and diluted into 9 concentration points at the concentration of 1,000 nM, 300 nM, 100 nM, 30 nM, 10 nM, 3 nM, 1 nM, 0.3 nM and 0.1 nM in two duplicated wells. A fixed volume of the diluted compound was added to the 96-well cell culture plate and then placed in the 5% CO2 cell incubator for culture at 37° C. for 5 days.
(§4) On Day 5, a fixed volume of CCK-8 was added to the 96-well cell culture plate and incubated in the 5% CO2 cell incubator at 37° C. for 1.5 h, and the plate was read by a chemiluminescence module of the multifunctional microplate reader.
(§5) With the logarithmic value of the concentration as an X axis and the survival percentage as a Y axis, a dose-effect curve was fitted by using a log(inhibitor) vs. response-Variable slop (Four parameters) formula of the analysis software Graphpad Prism 9, thereby obtaining the IC50 value of the anti-proliferation inhibitory activity of each compound against BRCA1-mutated MDA-MB-436 cells.

[2] = test system: BRCA1-mutated HCC1395 cells; assay: Proliferation inhibitory test of BRCA1-mutated HCC1395 cells (CCK-8); type: cell-based; settings: Homo sapiens, 120 h, 5 days, read-out: IC50 (nM), inhibitory activity against BRCA1-mutated HCC1395 cells
Experimental: as §1, with “HCC1395” for “MDA-MB-436”
as §2, §3, §4
as §5, with “HCC1395” for “MDA-MB-436”

[3] = Study on pharmacokinetics of rats (oral gavage, plasma LC-MS/MS); type: in vivo; settings: female SD rats; for AUC(0-t) / Cmax / half-life: rat
Experimental: With SD rats as test animals, the plasma concentration in the plasma of rats at different time points after oral administration of the compounds of the present application was determined by an LC-MS/MS method. Pharmacokinetic parameters of the compounds of the present application in rats were obtained to study pharmacokinetic characteristics.
SD rats, female, body weight 180-220 g, 3 rats per group. After being purchased, the animals were fed in an animal house for an adaptation period of at least 3 days and then used for testing after passing quarantine.
3.1. Grouping: The SD rats were randomly grouped according to Table 4, which had no statistical difference in the body weight between groups after grouping.
3.2. Vehicle: 10% DMSO and 90% (20% SBE-β-CD in saline).
According to Table 4, each compound was prepared into a clear solution with the vehicle, respectively, and each group was administered by gavage with the corresponding test drug. Before administration, and at 15 min, 30 min, 1 h, 2 h, 4 h, 6 h, 8 h and 24 h after the administration, a fixed volume of blood was collected through sinuses jugularis, placed in an EDTA-K2 anticoagulant tube, and centrifuged at 4,000 rpm for 10 min to separate the plasma in a centrifuge tube. The plasma was frozen in a refrigerator at −80° C.
The plasma stored at −80° C. at each time point was taken out, and a fixed volume of acetonitrile was added thereto. After being vortexed at 1,500 rpm for 2 min, it was centrifuged for 15 min (3,500 r/min). A fixed volume of solution supernatant was taken for LC-MS/MS analysis.
The pharmacokinetic behaviors of the test compounds were fitted with a non-compartmental model, and the main pharmacokinetic parameters were calculated using DAS3.31 software.

| IC50 [1] [nM] | IC50 [2] [nM] | Structure (SMILES) | further results |
| --- | --- | --- | --- |
| 0.67 | 1.76 | CCc1cc2ncc(CN3CCN(c4ccc(C(=O)NC)nc4)CC3)cc2[nH]c1=O [AZD5305, reference compound] | – |
| 2.06 | 2.45 | CNC(=O)c1ccc(N2CCN(Cc3cc(F)c4nc(C)c(=O)[nH]c4c3)CC2)c(C)n1 [Compound 6, 5-(4-((8-fluoro-2-methyl-3-oxo-3,4-dihydroquinoxalin-6-yl)methyl)piperazin-1-yl)-N,6-dimethylpicolinamide] | Cl_F_obs ([3]; po. 10 mg/kg): 2.17 mL/min/kg; AUC(0-t) ([3]; po. 10 mg/kg): 72600 ng·h/mL; Cmax ([3]; po. 10 mg/kg): 11300 ng/mL; half-life ([3]; po. 10 mg/kg): 6.07 h |
| 2.31 | – | CNC(=O)c1ccc(N2CCN(Cc3cc(F)c4nc(C)c(=O)[nH]c4c3)CC2)c(Cl)n1 [Compound 7, 6-chloro-5-(4-((8-fluoro-2-methyl-3-oxo-3,4-dihydroquinoxalin-6-yl)methyl)piperazin-1-yl)-N-methylpicolinamide] | – |
| 11.1 | – | CNC(=O)c1ccc(N2CCN(Cc3cc4[nH]c(=O)c(C)nc4c(F)c3F)CC2)cn1 [Compound 8, 5-(4-((7,8-difluoro-2-methyl-3-oxo-3,4-dihydroquinoxalin-6-yl)methyl)piperazin-1-yl)-N-methylpicolinamide] | – |
| 5.84 | 2.29 | CNC(=O)c1ccc(N2CCN(Cc3cc4[nH]c(=O)c(C)nc4c(F)c3F)CC2)c(C)n1 [Compound 9, 5-(4-((7,8-difluoro-2-methyl-3-oxo-3,4-dihydroquinoxalin-6-yl)methyl)piperazin-1-yl)-N,6-dimethylpicolinamide] | Cl_F_obs ([3]; po. 10 mg/kg): 0.5 mL/min/kg; AUC(0-t) ([3]; po. 10 mg/kg): 340000 ng·h/mL; Cmax ([3]; po. 10 mg/kg): 31900 ng/mL; half-life ([3]; po. 10 mg/kg): 7.74 h |
| 3.63 | – | CNC(=O)c1ccc(N2CCN(Cc3cc(C)c4nc(C)c(=O)[nH]c4c3)CC2)c(C)n1 [Compound 10, 5-(4-((2,8-dimethyl-3-oxo-3,4-dihydroquinoxalin-6-yl)methyl)piperazin-1-yl)-N,6-dimethylpicolinamide] | – |
| 8.31 | – | Cc1nc2c(C)cc(CN3CCN(c4ccc(C#N)c(F)c4)CC3)cc2[nH]c1=O [Compound 19, 4-(4-((2,8-dimethyl-3-oxo-3,4-dihydroquinoxalin-6-yl)methyl)piperazin-1-yl)-2-fluorobenzonitrile] | – |
| 6.95 | – | COCCNC(=O)c1ccc(N2CCN(Cc3cc(C)c4nc(C)c(=O)[nH]c4c3)CC2)c(C)n1 [Compound 22, 5-(4-((2,8-dimethyl-3-oxo-3,4-dihydroquinoxalin-6-yl)methyl)piperazin-1-yl)-N-(2-methoxyethyl)-6-methylpicolinamide] | – |
| 4.53 | 2.03 | Cc1nc(C(=O)NCC(F)F)ccc1N1CCN(Cc2cc(F)c3nc(C)c(=O)[nH]c3c2)CC1 [Compound 28, N-(2,2-difluoroethyl)-5-(4-((8-fluoro-2-methyl-3-oxo-3,4-dihydroquinoxalin-6-yl)methyl)piperazin-1-yl)-6-methylpicolinamide] | – |
| 9.83 | – | Cc1nc(C(=O)NCCF)ccc1N1CCN(Cc2cc(F)c3nc(C)c(=O)[nH]c3c2)CC1 [Compound 29, 5-(4-((8-fluoro-2-methyl-3-oxo-3,4-dihydroquinoxalin-6-yl)methyl)piperazin-1-yl)-N-(2-fluoroethyl)-6-methylpicolinamide] | – |
| 5.94 | – | CCc1nc2c(F)cc(CN3CCN(c4ccc(C(=O)NCCF)nc4C)CC3)cc2[nH]c1=O [Compound 30, 5-(4-((2-ethyl-8-fluoro-3-oxo-3,4-dihydroquinoxalin-6-yl)methyl)piperazin-1-yl)-N-(2-fluoroethyl)-6-methylpicolinamide] | – |
| 8.77 | – | CCc1nc2c(F)cc(CN3CCN(c4ccc(C(=O)NCCO)nc4C)CC3)cc2[nH]c1=O [Compound 31, 5-(4-((2-ethyl-8-fluoro-3-oxo-3,4-dihydroquinoxalin-6-yl)methyl)piperazin-1-yl)-N-(2-hydroxyethyl)-6-methylpicolinamide] | – |
| 5.24 | 1.82 | CCc1nc2c(F)cc(CN3CCN(c4ccc(C(=O)NC)nc4C)CC3)cc2[nH]c1=O [Compound 32, 5-(4-((2-ethyl-8-fluoro-3-oxo-3,4-dihydroquinoxalin-6-yl)methyl)piperazin-1-yl)-N,6-dimethylpicolinamide] | Cl_F_obs ([3]; po. 3 mg/kg): 0.83 mL/min/kg; AUC(0-t) ([3]; po. 3 mg/kg): 50600 ng·h/mL; Cmax ([3]; po. 3 mg/kg): 7180 ng/mL; half-life ([3]; po. 3 mg/kg): 7.39 h |
| 6.91 | – | CCc1nc2c(F)cc(CN3CCN(c4ccc(C(=O)NCC5COC5)nc4C)CC3)cc2[nH]c1=O [Compound 33, 5-(4-((2-ethyl-8-fluoro-3-oxo-3,4-dihydroquinoxalin-6-yl)methyl)piperazin-1-yl)-6-methyl-N-(oxetan-3-ylmethyl)picolinamide] | – |
| 5.87 | – | CCc1nc2c(F)cc(CN3CCN(c4ccc(C(=O)NCCOC)nc4C)CC3)cc2[nH]c1=O [Compound 34, 5-(4-((2-ethyl-8-fluoro-3-oxo-3,4-dihydroquinoxalin-6-yl)methyl)piperazin-1-yl)-N-(2-methoxyethyl)-6-methylpicolinamide] | Cl_F_obs ([3]; po. 3 mg/kg): 3 mL/min/kg; AUC(0-t) ([3]; po. 3 mg/kg): 17000 ng·h/mL; Cmax ([3]; po. 3 mg/kg): 3230 ng/mL; half-life ([3]; po. 3 mg/kg): 5.2 h |
| 4.88 | 0.95 | CNC(=O)c1ccc(N2CCN(Cc3cc4[nH]c(=O)c(C)nc4cc3OC)CC2)c(Cl)n1 [Compound 37, 6-chloro-5-(4-((7-methoxy-2-methyl-3-oxo-3,4-dihydroquinoxalin-6-yl)methyl)piperazin-1-yl)-N-methylpicolinamide] | – |
| 6.49 | – | CNC(=O)c1ccc(N2CCN(Cc3cc4[nH]c(=O)c(C)nc4cc3OC)CC2)c(C)n1 [Compound 41, 5-(4-((7-methoxy-2-methyl-3-oxo-3,4-dihydroquinoxalin-6-yl)methyl)piperazin-1-yl)-N,6-dimethylpicolinamide] | – |
| 4.02 | – | CCc1nc2c(F)cc(CN3CCN(c4ccc(C(=O)NC5COC5)nc4C)CC3)cc2[nH]c1=O [Compound 42, 5-(4-((2-ethyl-8-fluoro-3-oxo-3,4-dihydroquinoxalin-6-yl)methyl)piperazin-1-yl)-6-methyl-N-(oxetan-3-yl)picolinamide] | – |
| 8.38 | – | Cc1nc(C(=O)N[C@@H]2CCOC2)ccc1N1CCN(Cc2cc(F)c3nc(C)c(=O)[nH]c3c2)CC1 [Compound 46, (R)-5-(4-((8-fluoro-2-methyl-3-oxo-3,4-dihydroquinoxalin-6-yl)methyl)piperazin-1-yl)-6-methyl-N-(tetrahydrofuran-3-yl)picolinamide] | – |
| 1.05 | 1.31 | CNC(=O)c1ccc(N2CCN(Cc3cc(Cl)c4nc(C)c(=O)[nH]c4c3)CC2)c(C)n1 [Compound 51, 5-(4-((8-chloro-2-methyl-3-oxo-3,4-dihydroquinoxalin-6-yl)methyl)piperazin-1-yl)-N,6-dimethylpicolinamide] | – |
| 4.97 | – | Cc1nc(C(=O)NCCF)ccc1N1CCN(Cc2cc3[nH]c(=O)c(C)nc3c(F)c2F)CC1 [Compound 54, 5-(4-((7,8-difluoro-2-methyl-3-oxo-3,4-dihydroquinoxalin-6-yl)methyl)piperazin-1-yl)-N-(2-fluoroethyl)-6-methylpicolinamide] | – |

| Structure (SMILES) | IC50 [1] [nM] | IC50 [2] [nM] | further results |
| --- | --- | --- | --- |
| CNC(=O)c1ccc(N2CCN(Cc3ccc4nc(C)c(=O)[nH]c4c3F)CC2)c(F)n1 [AZD9574, reference compound] | 21.8 | 9.93 | Cl_F_obs ([3]; po. 3 mg/kg): 6.17 mL/min/kg; AUC(0-t) ([3]; po. 3 mg/kg): 6460 ng·h/mL; Cmax ([3]; po. 3 mg/kg): 702 ng/mL; half-life ([3]; po. 3 mg/kg): 6.06 h |
